Columns and labels:
Format in all cases: biochemical
[1] = biological target: BLK (Homo sapiens, UniProt P51451); test: Full kinase panel, single concentration: BLK; details: single concentration of 1 μM; read-out: residual enzyme activity (%) BLK
Protocol: (§1) In order to measure the inhibitory activity (% inhibitory capacity) against protein kinases of the compounds of the present invention, biochemical assays were performed using a full kinase panel.
(§2) The experimental compounds used herein were the compounds of Compound Nos. 1 and 33. The residual enzyme activity (%) was calculated by measuring the inhibitory activity against kinases upon treatment with the experimental compound at a single concentration of 1 μM. Kinases having calculated residual enzyme activity (%) of 30% or less (that is, inhibition of 70% or more) are shown below.

[2] = biological target: ABL2 (Homo sapiens, UniProt P42684); test: Full kinase panel, single concentration: ABL2; details: single concentration of 1 μM; read-out: residual enzyme activity (%) ABL2
Protocol: as §1, §2

[3] = biological target: T1, DDR2 (Homo sapiens, UniProt Q16832); test: Full kinase panel, single concentration: DDR2; details: single concentration of 1 μM; read-out: residual enzyme activity (%) DDR2
T1 sequence (Q16832 22-855): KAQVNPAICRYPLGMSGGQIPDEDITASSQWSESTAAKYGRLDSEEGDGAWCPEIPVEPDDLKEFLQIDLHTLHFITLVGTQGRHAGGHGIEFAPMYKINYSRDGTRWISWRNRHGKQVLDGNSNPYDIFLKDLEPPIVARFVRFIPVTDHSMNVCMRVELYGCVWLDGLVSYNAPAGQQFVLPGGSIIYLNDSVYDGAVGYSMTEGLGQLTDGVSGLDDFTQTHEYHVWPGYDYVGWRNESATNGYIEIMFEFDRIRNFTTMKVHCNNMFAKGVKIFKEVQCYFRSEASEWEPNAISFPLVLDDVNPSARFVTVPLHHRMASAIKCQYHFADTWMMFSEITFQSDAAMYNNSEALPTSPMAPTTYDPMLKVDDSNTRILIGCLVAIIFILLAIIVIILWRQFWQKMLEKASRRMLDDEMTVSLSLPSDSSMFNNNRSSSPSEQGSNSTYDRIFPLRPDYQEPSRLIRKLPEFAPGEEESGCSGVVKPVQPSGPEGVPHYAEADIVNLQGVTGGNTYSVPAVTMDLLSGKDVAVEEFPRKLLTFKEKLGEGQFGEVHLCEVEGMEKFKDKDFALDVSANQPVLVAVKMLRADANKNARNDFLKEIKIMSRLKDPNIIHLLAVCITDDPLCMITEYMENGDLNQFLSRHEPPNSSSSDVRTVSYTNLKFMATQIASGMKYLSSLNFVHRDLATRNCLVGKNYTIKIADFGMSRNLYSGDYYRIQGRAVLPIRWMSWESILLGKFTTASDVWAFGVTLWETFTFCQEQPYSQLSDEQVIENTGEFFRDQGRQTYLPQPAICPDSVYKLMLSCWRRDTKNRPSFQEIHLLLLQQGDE
Protocol: as §1, §2

[4] = biological target: T2, LYN (Homo sapiens, UniProt P07948); test: Full kinase panel, single concentration: LYN; details: single concentration of 1 μM; read-out: residual enzyme activity (%) LYN
Protocol: as §1, §2

[5] = biological target: T3, LCK (Homo sapiens, UniProt P06239); test: Full kinase panel, single concentration: LCK; details: single concentration of 1 μM; read-out: residual enzyme activity (%) LCK
Protocol: as §1, §2

[6] = biological target: T4, c-Src (Homo sapiens, UniProt P12931); test: IC50 inhibitory activity against c-Src kinase; details: read-out: c-Src IC50
Protocol: (§3) IC50 values were calculated by measuring the inhibitory activity against LCK, c-Src, p38a/MAPK14, ABL1, DDR1 and FGR kinases of the compounds of the present invention.

[7] = biological target: p38a/MAPK14 (Homo sapiens, UniProt Q16539); test: IC50 inhibitory activity against p38a/MAPK14 kinase; details: read-out: p38a/MAPK14 IC50
Protocol: as §3

[8] = biological target: T3, LCK; test: IC50 inhibitory activity against LCK kinase; details: read-out: LCK IC50
Protocol: as §3

[9] = biological target: ABL1 (Homo sapiens, UniProt P00519); test: IC50 inhibitory activity against ABL1 kinase; details: read-out: ABL1 IC50
Protocol: as §3

[10] = biological target: T5, BMX (Homo sapiens, UniProt P51813); test: Full kinase panel, single concentration: BMX; details: single concentration of 1 μM; read-out: residual enzyme activity (%) BMX
T5 sequence (P51813 1-675): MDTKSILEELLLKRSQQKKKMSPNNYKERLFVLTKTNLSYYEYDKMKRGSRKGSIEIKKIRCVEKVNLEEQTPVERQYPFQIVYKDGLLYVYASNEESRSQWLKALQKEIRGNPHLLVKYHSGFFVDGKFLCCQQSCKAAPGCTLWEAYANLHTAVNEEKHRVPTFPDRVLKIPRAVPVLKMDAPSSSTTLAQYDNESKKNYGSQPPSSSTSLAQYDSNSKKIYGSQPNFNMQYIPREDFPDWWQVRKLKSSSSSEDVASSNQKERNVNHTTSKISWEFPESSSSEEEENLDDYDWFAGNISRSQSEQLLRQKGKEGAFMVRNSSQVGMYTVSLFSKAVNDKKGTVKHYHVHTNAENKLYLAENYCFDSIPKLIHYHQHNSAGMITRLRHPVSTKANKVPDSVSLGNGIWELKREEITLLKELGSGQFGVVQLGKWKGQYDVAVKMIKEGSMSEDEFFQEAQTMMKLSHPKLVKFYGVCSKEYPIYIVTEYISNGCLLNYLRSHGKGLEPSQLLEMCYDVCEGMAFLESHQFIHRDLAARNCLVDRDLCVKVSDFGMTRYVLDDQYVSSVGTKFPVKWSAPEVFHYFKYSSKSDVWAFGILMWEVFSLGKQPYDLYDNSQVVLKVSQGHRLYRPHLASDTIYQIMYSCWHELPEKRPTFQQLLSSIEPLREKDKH
Protocol: as §1, §2

[11] = biological target: T2, LYN; test: IC50 inhibitory activity against LYN kinase
[12] = biological target: RAF1 (Homo sapiens, UniProt P04049); test: Full kinase panel, single concentration: RAF1; details: single concentration of 1 μM; read-out: residual enzyme activity (%) RAF1
Protocol: as §1, §2

[13] = biological target: T4, c-Src; test: Full kinase panel, single concentration: c-Src; details: single concentration of 1 μM; read-out: residual enzyme activity (%) c-Src
Protocol: as §1, §2

[14] = biological target: HCK (Homo sapiens, UniProt P08631); test: Full kinase panel, single concentration: HCK; details: single concentration of 1 μM; read-out: residual enzyme activity (%) HCK
Protocol: as §1, §2

[15] = biological target: T6, DDR1 (Homo sapiens, UniProt Q08345); test: IC50 inhibitory activity against DDR1 kinase; details: read-out: DDR1 IC50
Protocol: as §3

[16] = biological target: T6, DDR1; test: Full kinase panel, single concentration: DDR1; details: single concentration of 1 μM; read-out: residual enzyme activity (%) DDR1
Protocol: as §1, §2

[17] = biological target: CSK (Homo sapiens, UniProt P41240); test: Full kinase panel, single concentration: CSK; details: single concentration of 1 μM; read-out: residual enzyme activity (%) CSK
Protocol: as §1, §2

[18] = biological target: T7, FGR (Homo sapiens, UniProt P09769); test: Full kinase panel, single concentration: FGR; details: single concentration of 1 μM; read-out: residual enzyme activity (%) FGR
Protocol: as §1, §2

[19] = biological target: ABL1 (T315I) (Homo sapiens, UniProt P00519, T315I); test: IC50 inhibitory activity against ABL1 (T315I) kinase; details: read-out: ABL1 (T315I) IC50
Protocol: as §3

[20] = biological target: T7, FGR; test: IC50 inhibitory activity against FGR kinase; details: read-out: FGR IC50
Protocol: as §3

T2 sequence (P07948 whole entry): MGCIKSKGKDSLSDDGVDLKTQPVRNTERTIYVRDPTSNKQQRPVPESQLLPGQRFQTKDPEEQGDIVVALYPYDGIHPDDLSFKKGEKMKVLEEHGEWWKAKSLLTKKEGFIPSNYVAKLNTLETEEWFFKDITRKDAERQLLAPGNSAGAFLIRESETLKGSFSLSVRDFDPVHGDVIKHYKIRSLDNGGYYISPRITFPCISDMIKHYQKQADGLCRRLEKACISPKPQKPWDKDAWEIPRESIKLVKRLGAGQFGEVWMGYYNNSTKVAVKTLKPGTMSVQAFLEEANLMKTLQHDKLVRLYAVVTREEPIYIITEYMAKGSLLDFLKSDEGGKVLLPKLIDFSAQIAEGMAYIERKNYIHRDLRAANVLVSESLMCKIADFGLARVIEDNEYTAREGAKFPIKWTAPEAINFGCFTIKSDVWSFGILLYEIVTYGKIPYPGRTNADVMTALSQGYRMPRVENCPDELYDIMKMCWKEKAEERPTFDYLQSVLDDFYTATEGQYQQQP
T3 sequence (P06239 whole entry): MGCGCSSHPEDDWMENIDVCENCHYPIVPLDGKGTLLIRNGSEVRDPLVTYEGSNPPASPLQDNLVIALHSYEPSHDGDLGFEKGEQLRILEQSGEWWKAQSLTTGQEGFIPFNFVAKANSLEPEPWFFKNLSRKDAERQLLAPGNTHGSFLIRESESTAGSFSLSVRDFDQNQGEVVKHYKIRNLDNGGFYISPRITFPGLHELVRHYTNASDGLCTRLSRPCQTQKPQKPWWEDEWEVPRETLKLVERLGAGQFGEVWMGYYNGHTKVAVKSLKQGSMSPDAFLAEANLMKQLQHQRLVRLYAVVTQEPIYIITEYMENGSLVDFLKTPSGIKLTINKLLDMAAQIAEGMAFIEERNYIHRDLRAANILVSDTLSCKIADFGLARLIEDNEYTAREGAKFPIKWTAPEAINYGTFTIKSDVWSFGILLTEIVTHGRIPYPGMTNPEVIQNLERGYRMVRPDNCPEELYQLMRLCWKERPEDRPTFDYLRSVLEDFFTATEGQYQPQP
T7 sequence (P09769 whole entry): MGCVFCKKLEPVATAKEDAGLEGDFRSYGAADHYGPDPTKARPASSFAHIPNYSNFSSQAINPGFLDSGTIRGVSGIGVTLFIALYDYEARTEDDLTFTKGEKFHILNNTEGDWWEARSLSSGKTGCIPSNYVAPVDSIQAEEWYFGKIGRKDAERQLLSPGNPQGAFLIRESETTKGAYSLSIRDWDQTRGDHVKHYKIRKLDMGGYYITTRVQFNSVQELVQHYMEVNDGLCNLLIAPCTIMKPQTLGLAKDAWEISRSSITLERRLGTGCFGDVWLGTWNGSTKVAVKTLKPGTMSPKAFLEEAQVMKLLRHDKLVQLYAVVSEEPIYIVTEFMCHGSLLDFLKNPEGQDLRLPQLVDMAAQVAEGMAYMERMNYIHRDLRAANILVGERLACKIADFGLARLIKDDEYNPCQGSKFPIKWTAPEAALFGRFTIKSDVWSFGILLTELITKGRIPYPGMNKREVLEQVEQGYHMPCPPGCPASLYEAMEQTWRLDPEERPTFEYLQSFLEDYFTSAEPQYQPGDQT
T6 sequence (Q08345 19-913): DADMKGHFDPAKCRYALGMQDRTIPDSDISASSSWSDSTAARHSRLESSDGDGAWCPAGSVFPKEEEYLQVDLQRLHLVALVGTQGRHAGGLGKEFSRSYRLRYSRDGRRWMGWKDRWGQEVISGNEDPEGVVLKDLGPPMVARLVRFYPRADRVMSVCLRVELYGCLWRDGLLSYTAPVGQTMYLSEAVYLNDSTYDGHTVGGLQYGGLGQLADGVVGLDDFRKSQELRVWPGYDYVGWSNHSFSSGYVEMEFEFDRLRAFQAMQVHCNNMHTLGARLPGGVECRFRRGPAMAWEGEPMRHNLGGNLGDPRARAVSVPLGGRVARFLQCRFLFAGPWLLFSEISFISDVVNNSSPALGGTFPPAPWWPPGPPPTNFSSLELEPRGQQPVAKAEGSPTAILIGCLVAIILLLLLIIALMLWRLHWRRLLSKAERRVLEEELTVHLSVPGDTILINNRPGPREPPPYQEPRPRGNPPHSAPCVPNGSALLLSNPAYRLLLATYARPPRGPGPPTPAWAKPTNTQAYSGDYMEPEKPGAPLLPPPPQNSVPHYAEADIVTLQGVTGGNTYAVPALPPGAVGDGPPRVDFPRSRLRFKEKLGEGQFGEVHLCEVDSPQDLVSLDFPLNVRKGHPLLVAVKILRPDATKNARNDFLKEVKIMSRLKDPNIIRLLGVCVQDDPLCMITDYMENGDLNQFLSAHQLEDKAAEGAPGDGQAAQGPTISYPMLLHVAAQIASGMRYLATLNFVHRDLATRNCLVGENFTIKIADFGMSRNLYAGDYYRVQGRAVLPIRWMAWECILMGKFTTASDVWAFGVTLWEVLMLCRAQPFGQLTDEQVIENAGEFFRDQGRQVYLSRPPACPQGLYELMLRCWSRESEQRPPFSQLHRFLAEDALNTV
T4 sequence (P12931 whole entry): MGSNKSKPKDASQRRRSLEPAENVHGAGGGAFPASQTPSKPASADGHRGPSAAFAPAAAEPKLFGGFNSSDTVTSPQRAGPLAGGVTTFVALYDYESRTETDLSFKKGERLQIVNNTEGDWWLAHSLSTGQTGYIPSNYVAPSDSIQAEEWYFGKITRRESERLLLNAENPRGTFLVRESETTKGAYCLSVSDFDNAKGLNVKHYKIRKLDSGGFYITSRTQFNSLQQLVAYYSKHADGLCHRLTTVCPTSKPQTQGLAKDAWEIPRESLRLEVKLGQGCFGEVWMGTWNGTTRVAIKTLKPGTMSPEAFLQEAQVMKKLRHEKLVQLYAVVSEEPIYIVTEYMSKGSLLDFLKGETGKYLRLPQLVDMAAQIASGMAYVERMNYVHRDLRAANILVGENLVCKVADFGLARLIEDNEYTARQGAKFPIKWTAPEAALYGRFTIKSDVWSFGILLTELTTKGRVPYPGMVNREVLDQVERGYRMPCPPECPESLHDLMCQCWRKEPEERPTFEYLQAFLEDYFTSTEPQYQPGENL
RAF1, sequence (P04049 whole entry): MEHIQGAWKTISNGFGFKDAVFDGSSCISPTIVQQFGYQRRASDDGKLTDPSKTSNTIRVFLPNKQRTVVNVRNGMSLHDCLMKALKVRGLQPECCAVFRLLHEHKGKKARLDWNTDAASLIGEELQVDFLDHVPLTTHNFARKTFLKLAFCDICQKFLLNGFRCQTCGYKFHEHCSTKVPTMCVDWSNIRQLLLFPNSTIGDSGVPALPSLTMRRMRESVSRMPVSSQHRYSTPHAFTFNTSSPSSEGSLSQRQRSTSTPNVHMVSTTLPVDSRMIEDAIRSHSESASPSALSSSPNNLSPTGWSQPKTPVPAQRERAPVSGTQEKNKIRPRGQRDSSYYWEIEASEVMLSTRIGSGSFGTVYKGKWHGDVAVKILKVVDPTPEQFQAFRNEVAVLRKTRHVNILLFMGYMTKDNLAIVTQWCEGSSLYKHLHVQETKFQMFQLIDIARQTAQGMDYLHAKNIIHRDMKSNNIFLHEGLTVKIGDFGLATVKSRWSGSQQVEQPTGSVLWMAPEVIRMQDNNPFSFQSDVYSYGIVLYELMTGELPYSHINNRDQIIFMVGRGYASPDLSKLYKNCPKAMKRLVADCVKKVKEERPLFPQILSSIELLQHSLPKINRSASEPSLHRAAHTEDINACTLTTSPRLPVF
ABL2, sequence (P42684 whole entry): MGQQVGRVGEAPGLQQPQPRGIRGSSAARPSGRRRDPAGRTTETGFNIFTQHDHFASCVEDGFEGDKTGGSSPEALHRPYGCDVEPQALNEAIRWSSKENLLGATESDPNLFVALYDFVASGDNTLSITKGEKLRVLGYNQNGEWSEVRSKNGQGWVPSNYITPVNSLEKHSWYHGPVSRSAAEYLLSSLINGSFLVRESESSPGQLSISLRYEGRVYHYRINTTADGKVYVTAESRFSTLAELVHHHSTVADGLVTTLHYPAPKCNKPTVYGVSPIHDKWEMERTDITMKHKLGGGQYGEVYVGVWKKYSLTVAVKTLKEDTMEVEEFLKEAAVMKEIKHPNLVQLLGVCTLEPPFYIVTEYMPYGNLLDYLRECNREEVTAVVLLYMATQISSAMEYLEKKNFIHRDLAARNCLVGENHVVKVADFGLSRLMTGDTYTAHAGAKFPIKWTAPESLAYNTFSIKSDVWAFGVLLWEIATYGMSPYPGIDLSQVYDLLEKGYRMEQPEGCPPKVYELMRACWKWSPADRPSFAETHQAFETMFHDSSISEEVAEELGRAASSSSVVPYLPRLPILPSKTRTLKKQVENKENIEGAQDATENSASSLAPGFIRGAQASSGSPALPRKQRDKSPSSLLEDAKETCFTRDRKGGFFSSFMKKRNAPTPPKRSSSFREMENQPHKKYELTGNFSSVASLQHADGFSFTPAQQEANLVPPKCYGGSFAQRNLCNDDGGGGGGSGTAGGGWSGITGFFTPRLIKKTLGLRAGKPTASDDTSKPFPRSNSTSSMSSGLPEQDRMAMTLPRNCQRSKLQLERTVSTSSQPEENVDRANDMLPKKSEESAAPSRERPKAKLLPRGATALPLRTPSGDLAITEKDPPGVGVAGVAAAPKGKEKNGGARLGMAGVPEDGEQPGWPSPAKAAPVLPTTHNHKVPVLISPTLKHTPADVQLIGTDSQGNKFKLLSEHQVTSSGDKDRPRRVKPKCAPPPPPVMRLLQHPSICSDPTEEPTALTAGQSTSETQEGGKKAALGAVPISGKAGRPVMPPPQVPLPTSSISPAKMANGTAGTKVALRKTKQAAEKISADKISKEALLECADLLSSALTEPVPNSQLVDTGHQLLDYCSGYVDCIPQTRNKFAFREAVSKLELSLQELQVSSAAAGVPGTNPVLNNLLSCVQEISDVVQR

Cc1ccc(Nc2ncc3c(n2)N(C)C(=O)N(c2cc(NC(=O)c4ccc5c(c4)N(Cc4ccccc4)C(=O)[C@H](CC(C)C)N=C5c4ccccc4)ccc2C)C3)cn1 [Example 33, (S)-1-benzyl-3-isobutyl-N-(4-methyl-3-(1-methyl-7-((6-methylpyridin-3-yl)amino)-2-oxo-1,4-dihydropyrimido[4,5-d]pyrimidin-3(2H)-yl)phenyl)-2-oxo-5-phenyl-2,3-dihydro-1H-benzo[e][1,4]diazepine-8-carboxamide]
remaining activity at 1 µM [1]: ≤ 30%
remaining activity at 1 µM [2]: ≤ 30%
remaining activity at 1 µM [3]: ≤ 30%
remaining activity at 1 µM [4]: ≤ 30%
remaining activity at 1 µM [5]: ≤ 30%
IC50 [6]: 0.4 to 0.6 µM
IC50 [7]: > 0.6 µM
IC50 [8]: 0.001 to 0.2 µM
IC50 [9]: 0.4 to 0.6 µM
remaining activity at 1 µM [10]: ≤ 30%
IC50 [11]: 0.001 to 0.2 µM
remaining activity at 1 µM [12]: ≤ 30%
remaining activity at 1 µM [13]: ≤ 30%
remaining activity at 1 µM [14]: ≤ 30%
IC50 [15]: 0.001 to 0.2 µM
remaining activity at 1 µM [16]: ≤ 30%
remaining activity at 1 µM [17]: ≤ 30%
remaining activity at 1 µM [18]: ≤ 30%
IC50 [19]: > 0.6 µM
IC50 [20]: 0.001 to 0.2 µM

— patent US11530221B2, “Pyrimido[4,5-d]pyrimidin-2-one derivatives as protein kinase inhibitors” (KOREA INSTITUTE OF SCIENCE AND TECHNOLOGY, priority 2019, dated 2022)
